Reference: patent US8207188B2, “Treatment of diseases modulated by a H4 receptor agonist” (priority 2006, dated 2012)
“Also recorded” adds a separate entry of the source.

How the values were obtained:
[1] = test system: Mouse medullary cells C57B1/6 expressing H4R; experiment: Proliferation of Colony Forming Cells (CFC) in semi-solid media; format: cell-based; settings: 7 days; for inhibitory activity of cell proliferation (CFC): Example 20
Procedure: Using the assay described in Example 15, above, the effect of TRQ or CB on cells expressing H4R was tested. Mouse medullary cells C57B1/6 expressing H4R (50,000 cells/Petri dish) were incubated in a semi-solid media with haematopoietic growth factors (IL-3: 10 ng/ml) for 7 days with TRQ or CB.
Using the assay described in Example 15, above, the effect of TRQ or CB on cells expressing H4R was tested. Mouse medullary cells C57B1/6 expressing H4R (50,000 cells/Petri dish) were incubated in a semi-solid media with haematopoietic growth factors (IL-3: 10 ng/ml) for 7 days with a TRQ (racemic mixture of RR and SS isomers at 1 μM and 10 μM concentration); TRQ isomer E1 (10 μM concentration); TRQ isomer E2 (10 μM concentration) and CB (10 μM concentration).

[2] = test system: Mouse C57B1/6 Haematopoietic stem cells; experiment: G0/G1 cell cycle of sorted haematopoietic stem cells, 2 h incubation (Example 17); format: cell-based; settings: 2 hours incubation with growth factors
Procedure: Mouse C57B1/6 Haematopoietic stem cells were enriched with bone marrow cells by magnetic sorting. Only cells expressing surface tyrosine kinase were sorted. Cells were incubated for 2 hours with growth factors (IL-3 10 ng/ml, IL-6 10 ng/ml, SCF 50 ng/ml) and TRQ and its enantiomers, E1 and E2.
After 2 hours of incubation, cells were washed and incubated with […] for 30 minutes read by FACS scan.

[3] = test system: Mouse medullary cells C57B1/6 expressing H4R; experiment: Percentage of cells at G0/G1 phase, TRQ racemate and enantiomers with and without CB (Example 21); format: cell-based
Procedure: This experiment was conducted at two concentrations for all TRQ molecules (10 μM and 1 μM) in the presence and absence of CB (10 μM).
Using the assay described in Example 15, above, the effect of TRQ or CB on cells expressing H4R was tested. Mouse medullary cells C57B1/6 expressing H4R (50,000 cells/Petri dish) were incubated in a semi-solid media with haematopoietic growth factors such as IL-3 (10 ng/ml) for 7 days with a TRQ (racemic mixture of RR and SS isomers at 1 μM and 10 μM concentration); purified TRQ isomer E1 (10 μM and 1 μM concentration); purified TRQ isomer E2 (10 μM and 1 μM concentration) and CB (10 μM concentration). […] Similar results were shown with the purified TRQ isomers. In each experiment cells were incubated in the presence of growth factors (GF, FIG. 15).

[4] = molecular target: T1, Organic Cation Transporter-3 (OCT-3) (Mus musculus, UniProt Q9WTW5); experiment: Histamine uptake by bone marrow cells; format: cell-based, murine
T1 construct: from tissue; host or cells: total bone marrow cells
T1 sequence (Q9WTW5 1-551): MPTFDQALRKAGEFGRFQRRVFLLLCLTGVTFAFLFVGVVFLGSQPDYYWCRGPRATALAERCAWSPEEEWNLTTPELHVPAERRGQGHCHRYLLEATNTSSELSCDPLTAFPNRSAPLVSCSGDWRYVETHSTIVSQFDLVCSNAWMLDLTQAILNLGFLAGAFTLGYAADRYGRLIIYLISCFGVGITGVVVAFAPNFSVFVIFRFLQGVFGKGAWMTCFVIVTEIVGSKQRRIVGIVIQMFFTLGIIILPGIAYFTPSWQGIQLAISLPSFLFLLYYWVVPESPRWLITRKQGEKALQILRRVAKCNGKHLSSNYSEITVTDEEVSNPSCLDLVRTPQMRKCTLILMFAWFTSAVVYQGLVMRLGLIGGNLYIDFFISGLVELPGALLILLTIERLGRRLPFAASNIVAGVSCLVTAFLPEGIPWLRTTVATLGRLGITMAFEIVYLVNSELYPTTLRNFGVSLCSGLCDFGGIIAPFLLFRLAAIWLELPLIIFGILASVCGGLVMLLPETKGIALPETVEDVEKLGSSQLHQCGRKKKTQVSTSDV
Procedure: Cell cultures. Bone marrow (BM) cells were prepared as reported (Schneider, et al. J. Immunol. 139:3710-717) and adjusted to a final concentration of 2.5×10^6 per ml in culture medium (MEM) supplemented with 10% horse serum. Various doses (10^−5-10^−7 M) of Clobenpropit or Tritoqualine were added shortly before the addition of IL-3 (1 ng/ml), followed by a 24-h incubation at 37° C., 5% CO2.
Cytokine assays, measurement of histamine production, and uptake. IL-6 and IL-4 production was measured in cell supernatants recovered after a 24-h incubation. Histamine was quantified by an automated continuous flow spectrofluorometric technique (Schneider, et al. J. Immunol. 139:3710-717). For binding experiments, 10^6 total BM cells were plated in round-bottomed 96-well polypropylene plates (Costar). Unless stated otherwise, the cells were incubated (37° C., 5% CO2) for 3 h with 3 μCi/ml of [^3H]histamine dihydrochloride (2.5×10^−7 M; 12 Ci/mmol) in a final volume of 100 μl. Competition assays were performed as previously described (Corbel, S., et al. 1995. Blood. 86:531-539; Corbel, S., et al. 1995, FEBS Lett. 404:289-293). Each experiment was performed in triplicate, and histamine binding was calculated from total cpm after subtraction of nonspecific binding to filters.

[5] = molecular target: T2, Serotonin Transporter (SERT) (Mus musculus, UniProt Q60857); experiment: Serotonin uptake by bone marrow cells; format: cell-based, murine
T2 construct: from tissue; host or cells: total bone marrow cells
T2 sequence (Q60857 whole entry): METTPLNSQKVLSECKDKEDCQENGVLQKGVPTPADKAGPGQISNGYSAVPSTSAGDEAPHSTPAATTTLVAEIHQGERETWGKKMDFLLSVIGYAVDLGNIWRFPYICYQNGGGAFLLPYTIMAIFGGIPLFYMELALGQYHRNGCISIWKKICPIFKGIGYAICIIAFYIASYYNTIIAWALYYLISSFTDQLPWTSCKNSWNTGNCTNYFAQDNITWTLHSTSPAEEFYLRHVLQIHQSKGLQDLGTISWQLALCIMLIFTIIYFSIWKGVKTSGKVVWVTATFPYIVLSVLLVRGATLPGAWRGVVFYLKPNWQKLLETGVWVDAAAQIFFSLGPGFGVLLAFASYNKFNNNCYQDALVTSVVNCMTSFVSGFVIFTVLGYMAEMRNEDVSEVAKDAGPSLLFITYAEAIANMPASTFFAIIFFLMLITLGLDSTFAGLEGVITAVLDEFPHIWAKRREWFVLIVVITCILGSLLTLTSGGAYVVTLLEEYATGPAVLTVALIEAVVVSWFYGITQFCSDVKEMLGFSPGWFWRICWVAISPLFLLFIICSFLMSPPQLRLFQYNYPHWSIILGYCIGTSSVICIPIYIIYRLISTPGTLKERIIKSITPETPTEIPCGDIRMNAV

c-kit+ BM cells = experiment: Cell cycle status of c-kit+ BM cells with pertussis toxin; format: cell-based, murine; settings: 10 μM, 2 h
Procedure: Progenitor-enriched murine c-kit^+ BM or cord blood-derived CD34^+ cells were prepared by positive magnetic selection, suspended at a final concentration of 10^5 per ml in serum-free StemSpan medium (StemCell Technologies) and cultured up to 3 days in the presence of 10 ng of IL-3, 10 ng of IL-6 and 50 ng of SCF (Stem Cell Factor) per ml, with or without Clobenpropit (10^−5 M), Tritoqualine or both.
Magnetically sorted c-kit^+ BM cells were incubated for 2 h in StemSpan medium with growth factor cocktail alone or in the presence of 10^−5 M Clobenpropit, Tritoqualine or enantiomers. The cell cycle status was then assessed using Vybrant DyeCycle Violet (VDV) Stain (Invitrogen), according to the manufacturer's instructions.
The effect of Bordetella pertussis toxin (PTX; 100 ng/ml), an inhibitor of Gi/o coupling to the H4R, on the cell cycle arrest promoted by receptor activation was evaluated in the same conditions. After incubation, cells were analyzed using FlowJo software.

[6] = 10 μM, compared to control (GF only)

Structure (SMILES)	inhibition of proliferation of CFC ([1]; Example 16, 10 μM, IL-3 10 ng/ml, listed as TRQ)	inhibitory activity of cell proliferation (CFC) ([1]; 1 μM)	inhibition of G0/G1 phase [2]	percentage of cells at the G0/G1 phase / inhibitory activity of cell proliferation ([3]; 1 μM, listed as TRQ)	percentage of cells at the G0/G1 phase / inhibitory activity of cell proliferation ([3]; 1 μM, listed as racemic TRQ)	percentage of cells at the G0/G1 phase / inhibitory activity of cell proliferation [3, 6]	effect on biogenic monoamine uptake by OCT-3 ([4]; listed as TRQ)	effect on biogenic monoamine uptake by SERT ([5]; listed as TRQ)	inhibitory activity of cell proliferation (CFC) ([1]; 10 μM)	percentage of cells at the G0/G1 phase / inhibitory activity of cell proliferation ([3]; 1 μM)	H4R agonist activity (percentage of cells at the G0/G1 phase) (c-kit+ BM cells)	inhibition of histamine uptake ([4]; 1 μM)	inhibition of histamine uptake ([4]; 10 μM)	inhibition of serotonin uptake ([5]; 1 μM)	inhibition of serotonin uptake ([5]; 10 μM)
CCOc1c(N)c2c(c(OCC)c1OCC)C(C1c3c(cc4c(c3OC)OCO4)CCN1C)OC2=O (racemic) [Tritoqualine, 7-Amino-4,5,6-triethoxy-3-(5,6,7,8-tetrahydro-4-methoxy-6-methyl-1,3-dioxolo[4,5-g]isoquinolin-5-yl) phthalide]	more potent inhibitor of cell proliferation than the Clobenpropit	less inhibitory activity in comparison to 10 μM CB	approximately 50%	also increased the percentage of cells at the G0/G1 phase	less inhibitory activity in comparison to 10 μM CB	also increased the percentage of cells at the G0/G1 phase	do not significantly alter; also recorded: does not affect	do not significantly alter; also recorded: does not affect							
CCOc1c(N)c2c(c(OCC)c1OCC)[C@H]([C@H]1c3c(cc4c(c3OC)OCO4)CCN1C)OC2=O [E1]			approximately 50%			slightly more potent than isomer E2			slightly more potent than isomer E2	higher percentage of cells at the G0/G1 phase than the racemic TRQ	H4R agonist activity similar to the one of CB	negligible	greatly reduced	negligible	greatly reduced
CCOc1c(N)c2c(c(OCC)c1OCC)[C@@H]([C@@H]1c3c(cc4c(c3OC)OCO4)CCN1C)OC2=O [E2]			57%			exerted inhibitory activity of cell proliferation			exerted inhibitory activity of cell proliferation	higher percentage of cells at the G0/G1 phase than the racemic TRQ	H4R agonist activity similar to the one of CB	negligible	greatly reduced	negligible	greatly reduced
